US20040204466A1, “Treatment of bronchial asthma using 5-HT3 receptor antagonists” (Orchid Chemicals and Pharmaceuticals Ltd., priority 2003, published 2004)

Assays:
Type in all cases: in vivo, female Balb/c mice
[1] = tested on: ovalbumin sensitized and challenged mice; experiment: Serum IgE levels; settings: gavage 120 μg/kg twice a day for 10 days; values increased, albeit insignificantly
[2] = tested on: ovalbumin sensitized and challenged mice; experiment: Ova-specific airway resistance of early and late allergic response to antigen challenge; settings: gavage 120 μg/kg twice a day for 10 days
Method: Four to five-week old female Balb/c mice (Harlan Laboratories, Indianapolis, Ind.) were housed according to the NIH guidelines and were allowed constant access to food and water. Intraperitoneal injections of 6 μg of grade V chicken egg ovalbumin (Ova; Sigma-Aldrich, St. Louis, Mo.) adsorbed to 2.25 mg Imject Alum (Pierce, Rockford, Ill.) and dissolved in PBS. Aerosol sensitization with 0.2% ovalbumin (Ova) for 10 minutes using Ultra-Neb 90 nebulizer (DeVilbiss, Somerset, Pa.). Ondansetron was administered by gavage in the dose of 120 μg/kg twice a day for 10 days.

[3] = tested on: ovalbumin sensitized and challenged mice; experiment: Eosinophils in BAL fluid following methacholine challenge; settings: immediately following methacholine challenge; FIGS. 7 and 8
[4] = tested on: ovalbumin sensitized and challenged mice; experiment: Airway hyperresponsiveness to methacholine (Penh, barometric plethysmography); settings: 24 hours after antigen challenge, increasing doses of methacholine, FIGS. 5 and 6
Method: Four to five-week old female Balb/c mice (Harlan Laboratories, Indianapolis, Ind.) were housed according to the NIH guidelines and were allowed constant access to food and water. Intraperitoneal injections of 6 μg of grade V chicken egg ovalbumin (Ova; Sigma-Aldrich, St. Louis, Mo.) adsorbed to 2.25 mg Imject Alum (Pierce, Rockford, Ill.) and dissolved in PBS. Aerosol sensitization with 0.2% ovalbumin (Ova) for 10 minutes using Ultra-Neb 90 nebulizer (DeVilbiss, Somerset, Pa.). Twenty-four hours after antigen challenge, the mice were challenged with increasing does of methacholine and Penh values were recorded by barometric plethysmography.

In the case of `Cc1nccn1CC1CCc2c(c3ccccc3n2C)C1=O` (centres unmarked) [Ondansetron], the “mean serum IgE concentrations” value [1] is reported as “unaffected”, the “Ova-specific airway resistance of the early allergic response (EAR)” value ([2]; FIG. 1) is reported as “without EAR protection” and the “Ova-specific airway resistance of the late allergic response (LAR)” value ([2]; P <0.001, FIG. 2) is reported as “significant protection during the LAR”. The “numbers of eosinophil in BAL” value [3] was “significantly descried numbers of eosinophil” and the AHR to methacholine [4] was “completely suppressed”.
